Measured values taken from patent US11661577B2, “Co-incubating confined microbial communities” (CALIFORNIA INSTITUTE OF TECHNOLOGY, priority 2007, dated 2023).
Each block holds one compound with its values, some of them ahead of it.

Key:
[1] = system: MSSA (Staphylococcus aureus ATCC# 25923); assay: Antibiotic testing on Mueller Hinton agar plates; conditions: 30° C., even after 40 h
MSSA = assay: Plug-based drug screening in human blood plasma/LB; conditions: 1:1 human blood plasma/LB; breakpoint concentration; 7.5 h at 37° C.
[2] = system: Methicillin Sensitive S. aureus (MSSA); conditions: CFX 24 mg/L; stated as known; cited from earlier work
[3] = system: Methicillin Resistant S. aureus (MRSA); assay: MIC determination in plugs; conditions: Staphylococcus aureus, 6.75 h, read-out: MIC of CFX for MRSA
[4] = system: Methicillin Sensitive S. aureus (MSSA); assay: MIC determination in plugs; conditions: Staphylococcus aureus, 6.5 h, read-out: MIC of CFX for MSSA
[5] = system: Methicillin Resistant S. aureus (MRSA); conditions: CFX 24 mg/L; stated as known; cited from earlier work
[6] = system: Methicillin Resistant S. aureus (MRSA, ATCC# 43300); assay: Plug-based microfluidic antibiotic susceptibility screen (stochastic confinement, alamarBlue viability indicator); assay type: cell-based, Staphylococcus aureus; conditions: breakpoint concentration, 4 nL plugs, 4×10^5 CFU/mL, 7 h at 37° C.
S. aureus strain (MRSA) = assay: Macro-scale experiments (negative control check); assay type: cell-based, Staphylococcus aureus; conditions: data not shown

Compound: Cc1onc(-c2ccccc2)c1C(=O)N[C@@H]1C(=O)N2[C@@H]1SC(C)(C)[C@@H]2C(=O)O [OXA, oxacillin]
Appearance of MSSA colonies on antibiotic plates [1]: did not appear

Compound: CC1(C)S[C@@H]2[C@H](NC(=O)[C@H](N)c3ccccc3)C(=O)N2[C@H]1C(=O)O [AMP, ampicillin]
Increase in fluorescence intensity of plugs containing MSSA and antibiotic (MSSA): no increase in fluorescence intensity

MIC [3]: < 8000 µg/mL | MIC [4]: < 4000 µg/mL
Compound: CO[C@@]1(NC(=O)Cc2cccs2)C(=O)N2C(C(=O)O)=C(COC(N)=O)CS[C@@H]21 [CFX, cefoxitin]
Inhibition of MSSA at the positive control concentration [2]: inhibited | Appearance of MSSA colonies on antibiotic plates [1]: did not appear | Inhibition of MRSA at the positive control concentration [5]: inhibited

Compound: CN[C@H](CC(C)C)C(=O)N[C@H]1C(=O)N[C@@H](CC(N)=O)C(=O)N[C@H]2C(=O)N[C@H]3C(=O)N[C@H](C(=O)N[C@H](C(=O)O)c4cc(O)cc(O)c4-c4cc3ccc4O)[C@H](O)c3ccc(c(Cl)c3)Oc3cc2cc(c3O[C@@H]2O[C@H](CO)[C@@H](O)[C@H](O)[C@H]2O[C@H]2C[C@](C)(N)[C@H](O)[C@H](C)O2)Oc2ccc(cc2Cl)[C@H]1O [VCM, vancomycin]
Susceptibility of MRSA to antibiotic (increase in fluorescence intensity of plugs versus 3 times the VCM baseline) [6]: sensitive | Susceptibility of MRSA to antibiotic (increase in fluorescence intensity of plugs versus 3 times the VCM baseline) ([6]; listed as Vancomycin): not resistant | Inhibition of the S. aureus strain in macro-scale experiments (S. aureus strain (MRSA)): inhibited
